{"source": "patent US11285139B2", "about": "“Treatment of CNS conditions” (Takeda Pharmaceutical Company Limited, priority 2017, dated 2022)", "format_in_all_cases": "in vivo", "key": {"Scn1a+/−mice": {"test_system": "Scn1a+/−mice", "test": "spontaneous seizures in Scn1a+/− mouse model of Dravet syndrome", "conditions": "chow containing 0.02% (w/w) for 2 weeks, started at 17-18 days after birth; control group 23.9%", "procedure": "The following Example provides data from a heterozygous deletion of a Scn1a mouse model (Scn1a+/−mice) of Dravet syndrome, a developmental epileptic encephalopathy subtype. Myoclonic and generalized tonic-clonic seizures are observed, which correlate to symptoms in humans. Therefore, (4-benzyl-4-hydroxypiperidin-1-yl) (2,4′-bipyridin-3-yl)methanone was tested in Scn1a+/−mice for its potential effects on seizure. At 17-18 days after birth, mice were weaned and started on treatment either with control chow or chow containing (4-benzyl-4-hydroxypiperidin-1-yl) (2,4′-bipyridin-3-yl)methanone 0.02% (w/w) for 2 weeks. Spontaneous seizures were continuously monitored. The seizure free rate during the study period for the control group was 23.9%."}, "[1]": {"test": "single-rising dose (SRD) first-in-human study, safety evaluation", "procedure": "(§1) Four clinical studies including a single-rising dose (SRD) first-in-human study, a single-dose positron emission tomography (PET) target occupancy study, a multiple-rising dose (MRD) study, and a single-dose relative bioavailability (BA) and food-effect study were conducted."}, "CH24H": {"biological_target": "T1, CH24H (Homo sapiens, UniProt Q9Y6A2)", "T1 construct": "single-dose positron emission tomography (PET) target occupancy study; from tissue; host or cells: brain of study participants, in vivo (brain is inferred from the statement that CH24H is expressed in neurons)", "T1 sequence (Q9Y6A2 whole entry)": "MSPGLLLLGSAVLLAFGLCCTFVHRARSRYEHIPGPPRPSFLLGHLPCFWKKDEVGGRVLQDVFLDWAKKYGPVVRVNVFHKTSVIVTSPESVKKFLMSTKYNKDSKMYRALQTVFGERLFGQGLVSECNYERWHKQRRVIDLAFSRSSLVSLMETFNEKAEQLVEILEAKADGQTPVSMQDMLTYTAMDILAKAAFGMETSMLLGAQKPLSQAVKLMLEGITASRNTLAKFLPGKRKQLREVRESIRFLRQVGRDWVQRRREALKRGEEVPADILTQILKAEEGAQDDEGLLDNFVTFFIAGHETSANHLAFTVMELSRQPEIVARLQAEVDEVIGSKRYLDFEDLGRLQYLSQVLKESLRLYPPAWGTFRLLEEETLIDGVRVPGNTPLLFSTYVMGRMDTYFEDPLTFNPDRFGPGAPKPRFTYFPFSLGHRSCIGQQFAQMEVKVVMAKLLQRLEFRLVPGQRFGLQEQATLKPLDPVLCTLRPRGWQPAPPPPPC", "test": "single-dose positron emission tomography (PET) target occupancy study", "procedure": "as §1\nThe pharmacokinetics (PK) and pharmacodynamics (PD) of (4-benzyl-4-hydroxypiperidin-1-yl) (2,4′-bipyridin-3-yl)methanone were characterized in these studies."}}}
{"smiles": "O=C(c1cccnc1-c1ccncc1)N1CCC(O)(Cc2ccccc2)CC1", "note": "[(4-benzyl-4-hydroxypiperidin-1-yl) (2,4′-bipyridin-3-yl)methanone]", "values": [{"measurement": "seizure free rate during the study period", "setting": "Scn1a+/−mice", "value": 91.7, "unit": "%"}, {"measurement": "serious pretreatment events or post treatment adverse events", "setting": "[1]; all cohorts, 15-1350 mg single oral dose", "value": "No serious pretreatment events or post treatment adverse events were reported"}, {"measurement": "safety and tolerability", "setting": "[1]; doses up to 1350 mg single dose, healthy male and female subjects", "value": "generally safe and well tolerated"}, {"measurement": "plasma 24HC concentrations", "setting": "CH24H", "value": "dose-dependent decreases"}, {"measurement": "PET occupancy measurements", "setting": "CH24H; correlated with circulating levels of 24HC", "value": "dose- and time-dependent"}]}
